± gives the uncertainty stated by the source.
Experiment: xn = mol fraction of the nth substance listed

CC[N+](=O)[O-] + CC(C)(C)O
viscosity [mPa·s], 101.33 kPa
Settings	298.15 K	303.15 K	313.15 K
x2 = 0.0502	0.646 ± 0.006	0.61 ± 0.006	0.546 ± 0.005
x2 = 0.1001	0.647 ± 0.006	0.609 ± 0.006	0.544 ± 0.005
x2 = 0.1499	0.655 ± 0.006	0.615 ± 0.006	0.546 ± 0.005
x2 = 0.2002	0.67 ± 0.006	0.626 ± 0.006	0.547 ± 0.005
x2 = 0.2501	0.691 ± 0.006	0.643 ± 0.006	0.563 ± 0.005
x2 = 0.3001	0.718 ± 0.006	0.667 ± 0.006	0.58 ± 0.005
x2 = 0.35	0.753 ± 0.007	0.694 ± 0.006	0.597 ± 0.005
x2 = 0.4	0.794 ± 0.007	0.73 ± 0.006	0.622 ± 0.006
x2 = 0.4501	0.845 ± 0.007	0.778 ± 0.007	0.652 ± 0.006
x2 = 0.5001	0.909 ± 0.008	0.824 ± 0.007	0.687 ± 0.006
x2 = 0.55	0.988 ± 0.008	0.886 ± 0.008	0.728 ± 0.006
x2 = 0.6	1.075 ± 0.009	0.958 ± 0.008	0.777 ± 0.007
x2 = 0.6499	1.185 ± 0.01	1.047 ± 0.009	0.836 ± 0.007
x2 = 0.6998	1.323 ± 0.011	1.158 ± 0.01	0.907 ± 0.008
x2 = 0.7498	1.499 ± 0.012	1.3 ± 0.011	0.997 ± 0.008
x2 = 0.7998	1.73 ± 0.014	1.475 ± 0.012	1.104 ± 0.009
x2 = 0.8498	2.063 ± 0.016	1.728 ± 0.014	1.258 ± 0.01
x2 = 0.8997	2.505 ± 0.02	2.068 ± 0.016	1.449 ± 0.012
x2 = 0.95	3.231 ± 0.025	2.574 ± 0.02	1.718 ± 0.014

CCCCN + CCCCCCO
viscosity [mPa·s], 101.33 kPa
Settings	303.15 K	313.15 K	323.15 K
x1 = 0.099	3.27 ± 0.025	2.673 ± 0.02	–
x1 = 0.1002	3.164 ± 0.028	2.411 ± 0.022	1.888 ± 0.017
x1 = 0.2005	2.593 ± 0.023	2.026 ± 0.018	1.608 ± 0.015
x1 = 0.2079	2.728 ± 0.021	2.202 ± 0.017	–
x1 = 0.2888	2.334 ± 0.018	1.906 ± 0.015	–
x1 = 0.3001	2.082 ± 0.019	1.642 ± 0.015	1.322 ± 0.012
x1 = 0.4004	1.701 ± 0.015	1.356 ± 0.013	1.113 ± 0.01
x1 = 0.414	1.79 ± 0.014	1.47 ± 0.011	–
x1 = 0.5002	1.371 ± 0.013	1.12 ± 0.01	0.923 ± 0.009
x1 = 0.5223	1.39 ± 0.011	1.161 ± 0.0092	–
x1 = 0.5987	1.155 ± 0.0092	0.9887 ± 0.008	–
x1 = 0.6001	1.105 ± 0.01	0.909 ± 0.009	0.765 ± 0.007
x1 = 0.6999	0.906 ± 0.009	0.759 ± 0.007	0.648 ± 0.006
x1 = 0.7197	0.8668 ± 0.0071	0.754 ± 0.0063	–
x1 = 0.8001	0.729 ± 0.007	0.622 ± 0.006	0.537 ± 0.005
x1 = 0.8124	0.6995 ± 0.0059	0.611 ± 0.0053	–
x1 = 0.8998	0.573 ± 0.006	0.494 ± 0.005	0.433 ± 0.005
x1 = 0.9046	0.5625 ± 0.0049	0.4944 ± 0.0045	–

CCCCN + CCCCCCCCCCO
viscosity [mPa·s], 101.33 kPa
Settings	x1 = 0.1009	x1 = 0.1875	x1 = 0.2926	x1 = 0.4082	x1 = 0.4885	x1 = 0.5888	x1 = 0.7198	x1 = 0.8119	x1 = 0.9029
303.15 K	7.619 ± 0.051	6.568 ± 0.045	5.323 ± 0.038	4.051 ± 0.029	3.232 ± 0.024	2.336 ± 0.017	1.398 ± 0.011	0.9303 ± 0.0075	0.6273 ± 0.0054
313.15 K	5.926 ± 0.042	5.059 ± 0.037	4.058 ± 0.03	3.072 ± 0.023	2.462 ± 0.018	1.813 ± 0.014	1.151 ± 0.0091	0.8181 ± 0.0067	0.5744 ± 0.005

O=[N+]([O-])c1ccc(O)cc1 + CCCCCOC(C)=O
Settings	viscosity [mPa·s]
298.15 K, 101 kPa, x1 = 0.5	1.564 ± 0.015

O=[N+]([O-])[O-].[Ag+] + Nc1cccc(Cl)c1
298.15 K, 101 kPa
Settings	viscosity [mPa·s]
x1 = 0.00059	3.52 ± 0.09
x1 = 0.0014	3.57 ± 0.1
x1 = 0.00381	3.67 ± 0.1
x1 = 0.008857	3.92 ± 0.1
x1 = 0.02337	4.83 ± 0.13
x1 = 0.06044	9.18 ± 0.25

CCCC(=O)OCC(COC(=O)CCC)OC(=O)CCC + CCO
viscosity [mPa·s], 101.33 kPa
Settings	x1 = 0.1	x1 = 0.2	x1 = 0.3	x1 = 0.4	x1 = 0.5	x1 = 0.6	x1 = 0.7	x1 = 0.8	x1 = 0.9
298 K	1.59 ± 0.02	2.22 ± 0.03	2.92 ± 0.03	3.63 ± 0.04	4.38 ± 0.05	5.15 ± 0.06	5.97 ± 0.08	6.78 ± 0.09	7.71 ± 0.11
303 K	1.44 ± 0.02	1.98 ± 0.02	2.58 ± 0.03	3.19 ± 0.04	3.81 ± 0.04	4.48 ± 0.05	5.14 ± 0.06	5.82 ± 0.08	6.58 ± 0.09
308 K	1.31 ± 0.02	1.78 ± 0.02	2.29 ± 0.03	2.81 ± 0.03	3.35 ± 0.04	3.91 ± 0.05	4.48 ± 0.06	5.04 ± 0.06	5.67 ± 0.08
313 K	1.21 ± 0.01	1.61 ± 0.02	2.06 ± 0.02	2.51 ± 0.03	2.97 ± 0.03	3.43 ± 0.04	3.92 ± 0.05	4.4 ± 0.06	4.92 ± 0.07

CCCC(=O)OCC(COC(=O)CCC)OC(=O)CCC + CCCCCCO
viscosity [mPa·s], 101.33 kPa
Settings	x1 = 0.1	x1 = 0.2	x1 = 0.3	x1 = 0.4	x1 = 0.5	x1 = 0.6	x1 = 0.7	x1 = 0.8	x1 = 0.9
298 K	4 ± 0.06	4.09 ± 0.06	4.3 ± 0.06	4.65 ± 0.07	5.05 ± 0.07	5.56 ± 0.08	6.15 ± 0.09	6.84 ± 0.1	7.68 ± 0.11
303 K	3.47 ± 0.05	3.54 ± 0.05	3.72 ± 0.05	4 ± 0.06	4.36 ± 0.06	4.8 ± 0.07	5.27 ± 0.07	5.86 ± 0.08	6.54 ± 0.09
308 K	3.02 ± 0.04	3.08 ± 0.04	3.26 ± 0.05	3.49 ± 0.05	3.79 ± 0.05	4.15 ± 0.06	4.57 ± 0.06	5.07 ± 0.07	5.63 ± 0.08
313 K	2.65 ± 0.04	2.71 ± 0.04	2.85 ± 0.04	3.07 ± 0.04	3.33 ± 0.05	3.64 ± 0.05	4 ± 0.06	4.42 ± 0.06	4.9 ± 0.07

CCCCN + CCCCCCCO
viscosity [mPa·s], 101.33 kPa
Settings	303.15 K	313.15 K	323.15 K
x1 = 0.0997	4.157 ± 0.032	3.079 ± 0.024	2.366 ± 0.019
x1 = 0.122	3.964 ± 0.029	2.931 ± 0.022	–
x1 = 0.1998	3.439 ± 0.026	2.557 ± 0.019	–
x1 = 0.201	3.328 ± 0.026	2.535 ± 0.02	1.993 ± 0.016
x1 = 0.2914	2.866 ± 0.022	2.134 ± 0.016	–
x1 = 0.3	2.671 ± 0.022	2.069 ± 0.017	1.627 ± 0.014
x1 = 0.4035	2.125 ± 0.018	1.684 ± 0.014	1.346 ± 0.011
x1 = 0.4133	2.169 ± 0.016	1.636 ± 0.013	–
x1 = 0.4897	1.797 ± 0.014	1.363 ± 0.011	–
x1 = 0.5	1.669 ± 0.014	1.336 ± 0.012	1.094 ± 0.01
x1 = 0.6006	1.294 ± 0.011	1.056 ± 0.009	0.879 ± 0.008
x1 = 0.6172	1.284 ± 0.01	0.9879 ± 0.008	–
x1 = 0.7002	0.975 ± 0.009	0.797 ± 0.007	0.676 ± 0.006
x1 = 0.7147	0.9851 ± 0.0079	0.7769 ± 0.0065	–
x1 = 0.8001	0.77 ± 0.007	0.655 ± 0.006	0.563 ± 0.006
x1 = 0.8091	0.761 ± 0.0063	0.6198 ± 0.0054	–
x1 = 0.8999	0.606 ± 0.006	0.518 ± 0.005	0.451 ± 0.005
x1 = 0.907	0.5793 ± 0.0051	0.4903 ± 0.0044	–
